System: L929 mammalian fibroblasts
Test: MEM (Minimum Essential Medium) USP elution in-vitro toxicity test
Format: cell-based
Excerpt: In testing the toxicity of compounds of the compositions disclosed in solution, an MEM test procedure is used. The MEM (Minimum Essential Medium) test procedure is employed to evaluate cytoxicity using standard USP (The United States Pharmacopeial Convention) elution assays. A description of the test procedure is provided herein.
The assay provides a means of evaluating extracts of polymeric materials under direct contact conditions. This method is appropriate for high-density materials and for dose-response evaluations.
All reagents should be tissue culture grade or equivalent and should be reconstituted in accordance with manufacturer's instructions using aseptic technique.
Media Preparation: 1× MEM media is prepared by mixing 100 mL Eagle's MEM (with Earl's Salts and Sodium Bicarbonate, without L-glutamine), with 10 mL serum, 1 mL-glutamine solution, and 0.5 mL antibiotic solution (L-glutamine and antibiotic solutions are purchased at correct concentrations and stored frozen at −20° C.±2). Eagle's MEM is a sterile minimum essential medium and is available from Mediatech Celigro. Media may be stored up to 2 weeks at a temperature of 2° C.±2 after L-glutamine and antibiotics are added, or up to 1 month, if only serum is added. Preparation of 0.25% Trypsin: 10× Trypsin is placed in sterile 50 ml centrifuge tubes in 4 ml aliquots and stored frozen at −20° C.±2. Before use, a 4 ml aliquot of 10× trypsin is diluted 1:9 with 36 ml of Dulbecco's Phosphate Buffered Saline (PBS) to yield a 0.25% solution. Dulbecco's Saline is available from Mediatech Cellgro. Sterile 35 mm diameter petri dishes or 6 well tissue culture plates are used. Sterile serological pipets are employed in the procedure. Sterile absorbent material (e.g. Kay-Drys or similar material) is used. L929 mammalian fibroblasts (ATCC cell line CCL1, NCTC clone 929) are employed. […]
Exposure to Test Extracts: Exposure to test extracts is determined examining a representative prepared cell culture plate using the microscope to observe the cell monolayer for correct confluency. […]

SMILES: O.O.O.O.O.O.O=C([O-])c1ccccc1C(=O)O[O-].[Mg+2] [magnesium perphthalate, magnesium monoperoxyphthalate hexahydrate]
- cells dead (concentrations below 0.5%): 2-3%
- MEM Test Result level (concentrations below 0.5%, generally): 1 (Slight Not more than 20% of cells round and loosely attached—occasional lysed cells present)
- toxicity level MEM (concentrations of 0.5% and above, with and without saline): 4
